Columns and labels:
[1] = biological target: T1, B-Raf kinase (SEQ ID NO: 1) (Homo sapiens, UniProt P15056); experiment: Biochemical Assay for B-Raf (coupled pyruvate kinase/lactate dehydrogenase assay); settings: 1 mM ATP; read-out: BRAF (inhibition of biochemical activity, IC50)
T1 construct: GST (N); purchased Sigma

MiaPaca-2 cells = experiment: MiaPaca-2 Cell Proliferation Assay; assay type: cell-based; settings: Homo sapiens, MIA PaCa-2, MiaPaca-2 cells; Table 2; read-out: Inhibition of cell proliferation in MiaPaca-2 (IC50 class)
Experimental: Miapaca-2 cells (catalog #CRL-1420) are obtained from the American Type Culture Collect (ATTC, Manassas, VA). Briefly, cells were grown in DMVEM supplemented with 10 characterized fetal bovine serum (Invitrogen, Carlsbad, CA), 2.5% New Zealand sourced horse serum and 1 Penicillin/Streptomycin/L-Glutamine at 37° C., 5 CO2, and 95% humidity. Cells are expanded until reaching 70-95% confluency at which point they are sub-cultured or harvested for assay use. A serial dilution of test compound is dispensed into a 96-well black clear bottom plate in triplicate. Three thousand cells are added per well in 200 μL complete growth medium in the 96-well plate. Plates are incubated for 67 to 72 h at 37° C., 5% CO2, and 95% humidity. At the end of the incubation, 40 μL of a 440 μM solution of resazurin (Sigma, St. Louis, MO) in PBS is added to each well of the plate and plates are incubated for an additional 5 to 6 h at 37° C., 5% CO2, and 95% humidity. Plates are read on a Synergy2 or equivalent reader (Biotek, Winooski VT) using an excitation of 540 nm and an emission of 600 nm. Data is analyzed using Prism software (Graphpad, San Diego, CA) to calculate IC50 values.

HCT-116 cells = experiment: HCT-116 Cell Proliferation Assay; assay type: cell-based; settings: Homo sapiens, HCT-116, HCT-116 cells; Table 2; read-out: Inhibition of cell proliferation in HCT-116 (IC50 class)
Experimental: HCT-116 cells (catalog #CCL-247) are obtained from the American Type Culture Collect (ATCC, Manassas, VA). Briefly, cells are grown in McCoy's 5A supplemented with 10% characterized fetal bovine serum (Invitrogen, Carlsbad, CA) and 1% Penicillin/Streptomycin/L-Glutamine at 37° C., 5% CO2, and 95% humidity. Cells are expanded until reaching 70-95% confluency at which point they are subcultured or harvested for assay use. A serial dilution of test compound is dispensed into a 384-well black clear bottom plate in triplicate. 375 cells are added per well in 50 μL complete growth medium in the 384-well plate. Plates are incubated for 67 to 72 hours at 37° C., 5% CO2, and 95% humidity. At the end of the incubation, 40 μL of a […] solution of resazurin (Sigma, St. Louis, MO) in PBS is added to each well of the plate and plates are incubated for an additional 4 to 5 h at 37° C., 5% CO2, and 95% humidity. Plates are read on a Synergy2 or equivalent reader (Biotek, Winooski, VT) using an excitation of 540 nm and an emission of 600 nm. Data is analyzed using Prism software (Graphpad, San Diego, CA) to calculate IC50 values.

[2] = biological target: T2, C-Raf kinase (SEQ ID NO: 2) (Homo sapiens, UniProt P04049, Y340D/Y341D); experiment: Biochemical Assay for C-Raf (coupled pyruvate kinase/lactate dehydrogenase assay); settings: 1 mM ATP; read-out: CRAF (inhibition of biochemical activity, IC50)
T2 construct: C-Raf residues 306-end; Y340D, Y341D with; GST (N); purchased Sigma

HPAF-II cells = experiment: HPAF-II Cell Proliferation Assay; assay type: cell-based; settings: Homo sapiens, HPAF-II, HPAF-II cells; Table 2; read-out: Inhibition of cell proliferation in HPAF-II (IC50 class)
Experimental: (§1) HPAF-II cells (catalog #CRL-1997) are obtained from the American Type Culture Collect (ATCC, Manassas, VA). Briefly, cells are grown in Minimum Essential Media supplemented with 10% characterized fetal bovine serum (Invitrogen, Carlsbad, CA) and 1% Penicillin/Streptomycin/L-Glutamine at 37° C., 5% CO2, and 95% humidity. Cells are expanded until reaching 70-95% confluency at which point they are sub-cultured or harvested for assay use. A serial dilution of test compound is dispensed into a 384-well black clear bottom plate in triplicate. 750 cells are added per well in 50 μL complete growth medium in the 384-well plate. Plates are incubated for 115 to 120 hours at 37° C., 5% CO2, and 95% humidity. At the end of the incubation, 40 μL of a 440 μM solution of resazurin (Sigma, St. Louis, MO) in PBS is added to each well of the plate and plates are incubated for an additional 18 to 24 hours at 37° C., 5% CO2, and 95% humidity. Plates are read on a Synergy2 or equivalent reader (Biotek, Winooski, VT) using an excitation of 540 nm and an emission of 600 nm. Data is analyzed using Prism software (Graphpad, San Diego, CA) to calculate IC50 values.

Pa16c cells = experiment: Pa16c Cell Proliferation Assay; assay type: cell-based; settings: Table 2, read-out: Inhibition of cell proliferation in Pa16c (IC50 class)
Experimental: as §1, with “Pa16c” for “HPAF-II”, “cells” for “cells (catalog #CRL-1997)”, “Dr. Channing Der, University of North Carolina at Chapel Hill.” for “the American Type Culture Collect (ATCC, Manassas, VA).”, “Dulbecco's Modified Eagle Medium” for “Minimum Essential Media”, “67” for “115”, “72 h” for “120 hours”

T2 sequence (P04049 307-648 Y340D/Y341D): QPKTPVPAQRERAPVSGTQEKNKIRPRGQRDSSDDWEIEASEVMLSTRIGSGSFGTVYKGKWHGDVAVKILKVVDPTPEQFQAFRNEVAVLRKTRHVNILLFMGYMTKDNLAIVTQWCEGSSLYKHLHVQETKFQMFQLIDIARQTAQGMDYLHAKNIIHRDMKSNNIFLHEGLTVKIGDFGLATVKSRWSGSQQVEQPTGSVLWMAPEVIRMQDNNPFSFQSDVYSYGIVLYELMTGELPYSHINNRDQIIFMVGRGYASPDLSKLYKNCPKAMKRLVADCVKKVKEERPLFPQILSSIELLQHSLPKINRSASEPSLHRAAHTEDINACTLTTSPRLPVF
T1 sequence (P15056 416-766): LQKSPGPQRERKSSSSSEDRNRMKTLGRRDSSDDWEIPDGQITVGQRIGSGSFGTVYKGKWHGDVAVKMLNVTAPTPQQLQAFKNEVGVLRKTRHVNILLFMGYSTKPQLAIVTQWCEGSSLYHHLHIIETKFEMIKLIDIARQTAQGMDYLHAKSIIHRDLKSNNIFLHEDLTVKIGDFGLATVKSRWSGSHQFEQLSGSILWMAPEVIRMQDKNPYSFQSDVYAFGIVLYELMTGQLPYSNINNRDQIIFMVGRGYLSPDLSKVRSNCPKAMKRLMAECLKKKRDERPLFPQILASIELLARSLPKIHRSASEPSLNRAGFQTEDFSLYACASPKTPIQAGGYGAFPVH

Row | Structure (SMILES) | IC50 [1] [nM] | IC50 (MiaPaca-2 cells) [nM] | IC50 (HCT-116 cells) [nM] | IC50 [2] [nM] | IC50 (HPAF-II cells) [nM] | IC50 (Pa16c cells) [nM]
1 | Cc1cc(-c2cc(NC(=O)c3cc(C(F)(F)F)cnn3)ccc2C)cc(-c2ccnc(NC(=O)C3CC3)c2)n1 [Example 18] | < 100 | 100 to 500 | 100 to 500 | < 100 | 100 to 500 | 100 to 500
2 | Cc1ccc(NC(=O)c2cc(C3CC3)cnn2)cc1-c1cc(N[C@H](C)CO)nc(-c2cn[nH]c2)c1 [Example 117] | < 100 | < 100 | < 100 | < 100 | < 100 | < 100
3 | COCC(=O)Nc1cc(-c2nccc(-c3cc(NC(=O)c4cc(C(F)(F)F)cnn4)ccc3C)n2)ccn1 [Example 10] | < 100 | 1000 to 10000 | 500 to 1000 | < 100 | 500 to 1000 | 1000 to 10000
4 | Cc1ccc(NC(=O)c2cc(C3CC3)cnn2)cc1-c1cncc(-c2cc(NC(=O)C3CC3)ncn2)c1 [Example 69] | < 100 | 1000 to 10000 | 100 to 500 | < 100 | 500 to 1000 | 1000 to 10000
5 | Cc1ccc(NC(=N)c2cc(C3CC3)cnn2)cc1-c1ccnc(-c2ccnc(NC(=O)C3CC3)c2)c1 [Example 87] | < 100 | 1000 to 10000 | 1000 to 10000 | < 100 | 1000 to 10000 | 1000 to 10000
6 | CONc1cc(-c2cc(-c3cc(NC(=O)c4cc(C(F)(F)F)cnn4)ccc3C)ccn2)ccn1 [Example 128, N-(3-(2′-(methoxyamino)-[2,4′-bipyridin]-4-yl)-4-methylphenyl)-5-(trifluoromethyl)pyridazine-3-carboxamide] | 100 to 500 | 100 to 500 | 100 to 500 | 100 to 500 | 100 to 500 | 500 to 1000
7 | Cc1ccc(NC(=O)c2cccnn2)cc1-c1ccnc(-c2ccnc(NC(=O)C3CC3)c2)c1 [Example 83] | 1000 to 10000 | 1000 to 10000 | 1000 to 10000 | 100 to 500 | 1000 to 10000 | 1000 to 10000
8 | Cc1ccc(NC(=O)c2cc(C(C)C)cnn2)cc1-c1cncc(-c2ccnc(NC(=O)C3CC3)c2)c1 [Example 55] | < 100 | 500 to 1000 | < 100 | < 100 | 100 to 500 | 1000 to 10000
9 | Cc1ccc(NC(=O)c2cc(C3CC3)cnn2)cc1-c1cc(NCCO)nc(-c2ccnc(NC(=O)C3CC3)c2)c1 [Example 100] | < 100 | 100 to 500 | < 100 | < 100 | 100 to 500 | < 100
10 | Cc1ccc(NC(=O)c2ccc(C(F)(F)F)nn2)cc1-c1ccnc(-c2ccnc(NC(=O)C3CC3)c2)c1 [Example 19] | 100 to 500 | 100 to 500 | 100 to 500 | < 100 | 100 to 500 | < 100
11 | Cc1ccc(NC(=O)c2cncc(C(C)(C)F)c2)cc1-c1cncc(-c2cc(NC(=O)C3CC3)ncn2)c1 [Example 68] | < 100 | 100 to 500 | < 100 | < 100 | < 100 | 500 to 1000

From patent publication US20260226084A1, “DUAL RAF AND TUBULIN INHIBITORS AND METHODS OF USE THEREOF” (Deciphera Pharmaceuticals, LLC, priority 2023, published 2026)
